In patent US20260217701A1, “SELECTIVE BET INHIBITORS AND USES THEREOF” (Tay Therapeutics Limited, priority 2022, published 2026):
“And” between values parts separate entries of the source, which are not always exact repeats. Equal entries are not always repeated.

What was measured:
[1] = CIA study: animal body weight; settings: for Average animal body weight / Average animal body weight percent change: CIA; for Animal body weight percent change (%): individual animals
[2] = Pharmacokinetics of Compound A in the CIA study (groups 8 and 9); type: in vivo; settings: Lewis rats
Experimental: (§1) Blood samples were collected from animals in group 8 on Day 0, and blood samples were collected from group 9 on Day 20. Blood samples from group 8 and group 9 were collected at 0.25, 0.5, 1, 2, 4, 8, 10, 12, 13, and 24-hours following morning administration of their first dose of the compound. The second dose of the compound was administered after the 8-hour collection timepoint. All blood samples were collected at the eye socket and put into tubes containing EDTA-K2 as an anticoagulant and centrifuged at 4° C. at 4,000 g for 5 minutes. Plasma was transferred to a separate tube and stored at −75+15° C. for PK analysis. Pharmacokinetic analyses for Compound A in Lewis rats were performed as described in Experimental Method B.
as §1, with “−75±15°” for “−75+15°”, “Pharmacokinetic analyses for Compound A in Lewis rats were performed as described in Experimental Method B.” left out

Structure (SMILES): Cn1cc(-c2ccccc2)c(-c2cn(C)c(=O)c3[nH]c(-c4cnn(C(F)(F)F)c4)cc23)cc1=O [Compound A, 6-methyl-4-(1-methyl-2-oxo-5-phenyl-1,2-dihydropyridin-4-yl)-2-(1-(trifluoromethyl)-1H-pyrazol-4-yl)-1,6-dihydro-7H-pyrrolo[2,3-c]pyridin-7-one]
- Average animal body weight ([1]; Day 9, 1 mg/kg): 169
- Average animal body weight percent change ([1]; Day 9, 1 mg/kg): 3.79%
- Average animal body weight ([1]; Day 9, 3 mg/kg): 167
- Average animal body weight percent change ([1]; Day 9, 3 mg/kg): 0.75%
- Average animal body weight ([1]; Day 9, 10 mg/kg): 163
- Average animal body weight percent change ([1]; Day 9, 10 mg/kg): 0.36%
- Animal body weight percent change (%) ([1]; Day 9, Group 5 (CIA + Compound A 1 mg/kg), 1 mg/kg): 9.09% and −4.88% and 8.02% and 6.58% and 2.37% and 1.80% and 3.68%
- Animal body weight percent change (%) ([1]; Day 9, Group 6 (CIA + Compound A 3 mg/kg), 3 mg/kg): −3.57% and 0.00% (2×) and 1.71% and 1.20% and 4.19% and 8.28% and 2.56%
- Average animal body weight ([1]; Day 10, 1 mg/kg): 170
- Average animal body weight percent change ([1]; Day 10, 1 mg/kg): 4.20%
- Average animal body weight ([1]; Day 10, 3 mg/kg): 168
- Average animal body weight percent change ([1]; Day 10, 3 mg/kg): 1.65%
- Average animal body weight ([1]; Day 10, 10 mg/kg): 164
- Average animal body weight percent change ([1]; Day 10, 10 mg/kg): 0.89%
- Animal body weight percent change (%) ([1]; Day 10, Group 5 (CIA + Compound A 1 mg/kg), 1 mg/kg): 7.88% and −5.49% and 9.88% and 9.21% and 0.59% and 5.39% and 1.84%
- Animal body weight percent change (%) ([1]; Day 10, Group 6 (CIA + Compound A 3 mg/kg), 3 mg/kg): −3.57% and 0.58% and 1.14% and 1.80% and 0.60% and 2.45% and 6.37%
- Average animal body weight ([1]; Day 11, 1 mg/kg): 170
- Average animal body weight percent change ([1]; Day 11, 1 mg/kg): 4.25%
- Average animal body weight ([1]; Day 11, 3 mg/kg): 169
- Average animal body weight percent change ([1]; Day 11, 3 mg/kg): 1.92%
- Average animal body weight ([1]; Day 11, 10 mg/kg): 165
- Average animal body weight percent change ([1]; Day 11, 10 mg/kg): 1.44%
- Animal body weight percent change (%) ([1]; Day 11, Group 5 (CIA + Compound A 1 mg/kg), 1 mg/kg): 9.09% and −4.27% and 9.88% and 6.58% and 0.59% and 4.79% and 2.45%
- Animal body weight percent change (%) ([1]; Day 11, Group 6 (CIA + Compound A 3 mg/kg), 3 mg/kg): −4.76% and 0.58% and 1.71% and 2.99% and −4.19% and 3.68% and 9.55%
- Average animal body weight ([1]; Day 12, 1 mg/kg): 171
- Average animal body weight percent change ([1]; Day 12, 1 mg/kg): 4.85%
- Average animal body weight ([1]; Day 12, 3 mg/kg): 167
- Average animal body weight percent change ([1]; Day 12, 3 mg/kg): 0.97%
- Average animal body weight ([1]; Day 12, 10 mg/kg): 164
- Average animal body weight percent change ([1]; Day 12, 10 mg/kg): 1.36%
- Animal body weight percent change (%) ([1]; Day 12, Group 5 (CIA + Compound A 1 mg/kg), 1 mg/kg): 10.30% and −3.66% and 8.64% and 6.58% and 2.96% and 5.99% and 1.23%
- Animal body weight percent change (%) ([1]; Day 12, Group 6 (CIA + Compound A 3 mg/kg), 3 mg/kg): −5.95% and 2.92% and 2.86% and 0.00% and −5.39% and 3.68% and 9.55%
- Average animal body weight ([1]; Day 13, 1 mg/kg): 169
- Average animal body weight percent change ([1]; Day 13, 1 mg/kg): 3.78%
- Average animal body weight ([1]; Day 13, 3 mg/kg): 167
- Average animal body weight percent change ([1]; Day 13, 3 mg/kg): 0.88%
- Average animal body weight ([1]; Day 13, 10 mg/kg): 163
- Average animal body weight percent change ([1]; Day 13, 10 mg/kg): 0.66%
- Animal body weight percent change (%) ([1]; Day 13, Group 5 (CIA + Compound A 1 mg/kg), 1 mg/kg): 9.09% and −3.66% and 10.49% and 5.26% and 2.96% and 2.99% and 1.23%
- Animal body weight percent change (%) ([1]; Day 13, Group 6 (CIA + Compound A 3 mg/kg), 3 mg/kg): −3.57% and 2.34% and −5.14% and 3.59% and −5.99% and 3.07% and 8.92%
- Average animal body weight ([1]; Day 14, 1 mg/kg): 170
- Average animal body weight percent change ([1]; Day 14, 1 mg/kg): 3.90%
- Average animal body weight ([1]; Day 14, 3 mg/kg): 167
- Average animal body weight percent change ([1]; Day 14, 3 mg/kg): 0.99%
- Average animal body weight ([1]; Day 14, 10 mg/kg): 162
- Average animal body weight percent change ([1]; Day 14, 10 mg/kg): 0.03%
- Animal body weight percent change (%) ([1]; Day 14, Group 5 (CIA + Compound A 1 mg/kg), 1 mg/kg): 7.88% and −3.05% and 10.49% and 1.97% and 3.55% and 1.80% and 3.07%
- Animal body weight percent change (%) ([1]; Day 14, Group 6 (CIA + Compound A 3 mg/kg), 3 mg/kg): −2.98% and 3.51% and −2.86% and 4.79% and −6.59% and 2.45% and 8.28%
- Average animal body weight ([1]; Day 15, 1 mg/kg): 168
- Average animal body weight percent change ([1]; Day 15, 1 mg/kg): 3.24%
- Average animal body weight ([1]; Day 15, 3 mg/kg): 166
- Average animal body weight percent change ([1]; Day 15, 3 mg/kg): 0.37%
- Average animal body weight ([1]; Day 15, 10 mg/kg): 162
- Average animal body weight percent change ([1]; Day 15, 10 mg/kg): 0.13%
- Average animal body weight ([1]; Day 16, 1 mg/kg): 167
- Average animal body weight percent change ([1]; Day 16, 1 mg/kg): 2.62%
- Average animal body weight ([1]; Day 16, 3 mg/kg): 165
- Average animal body weight percent change ([1]; Day 16, 3 mg/kg): −0.37%
- Average animal body weight ([1]; Day 16, 10 mg/kg): 161
- Average animal body weight percent change ([1]; Day 16, 10 mg/kg): −0.57%
- Average animal body weight ([1]; Day 17, 1 mg/kg): 167
- Average animal body weight percent change ([1]; Day 17, 1 mg/kg): 2.48%
- Average animal body weight ([1]; Day 17, 3 mg/kg): 163
- Average animal body weight percent change ([1]; Day 17, 3 mg/kg): −1.43%
- Average animal body weight ([1]; Day 17, 10 mg/kg): 161
- Average animal body weight percent change ([1]; Day 17, 10 mg/kg): −0.47%
- Average animal body weight ([1]; Day 18, 1 mg/kg): 167
- Average animal body weight percent change ([1]; Day 18, 1 mg/kg): 2.38%
- Average animal body weight ([1]; Day 18, 3 mg/kg): 164
- Average animal body weight percent change ([1]; Day 18, 3 mg/kg): −1.11%
- Average animal body weight ([1]; Day 18, 10 mg/kg): 162
- Average animal body weight percent change ([1]; Day 18, 10 mg/kg): −0.29%
- Average animal body weight ([1]; Day 19, 1 mg/kg): 166
- Average animal body weight percent change ([1]; Day 19, 1 mg/kg): 1.46%
- Average animal body weight ([1]; Day 19, 3 mg/kg): 163
- Average animal body weight percent change ([1]; Day 19, 3 mg/kg): −1.74%
- Average animal body weight ([1]; Day 19, 10 mg/kg): 161
- Average animal body weight percent change ([1]; Day 19, 10 mg/kg): −0.70%
- Average animal body weight ([1]; Day 20, 1 mg/kg): 166
- Average animal body weight percent change ([1]; Day 20, 1 mg/kg): 1.92%
- Average animal body weight ([1]; Day 20, 3 mg/kg): 162
- Average animal body weight percent change ([1]; Day 20, 3 mg/kg): −2.24%
- Average animal body weight ([1]; Day 20, 10 mg/kg): 161
- Average animal body weight percent change ([1]; Day 20, 10 mg/kg): −0.54%
- Average animal body weight ([1]; Day 21, 1 mg/kg): 165
- Average animal body weight percent change ([1]; Day 21, 1 mg/kg): 0.93%
- Average animal body weight ([1]; Day 21, 3 mg/kg): 162
- Average animal body weight percent change ([1]; Day 21, 3 mg/kg): −1.78%
- Average animal body weight ([1]; Day 21, 10 mg/kg): 161
- Average animal body weight percent change ([1]; Day 21, 10 mg/kg): −0.75%
- period of increasing plasma concentration after oral administration [2]: approximately the first four hours
